From patent US20040266718A1, “Inhibition of specific histone deacetylase isoforms” (priority 2001, published 2004)
d = 2'-deoxy (DNA); m = 2'-O-methyl

Legend:
A549 [1] = assay: cell growth analysis (trypan blue cell count), A549; format: cell-based, human; settings: 50 nM, 72 hours
Description: (§1) Briefly, human A549 and/or T24 human bladder carcinoma cells were seeded in 10 cm tissue culture dishes one day prior to oligonucleotide treatment. The cell lines were obtained from the American Type Culture Collection (ATCC) (Manassas, Va.) and were grown under the recommended culture conditions. Before the addition of the oligonucleotides, cells were washed with PBS (phosphate buffered saline). Next, lipofectin transfection reagent (GIBCO BRL Mississauga, Ontario, Calif.), at a concentration of 6.25 μg/ml, was added to serum free OPTIMEM medium (GIBCO BRL, Rockville, Md.), which was then added to the cells. The oligonucleotides to be screened were then added directly to the cells (i.e., one oligonucleotide per plate of cells). Mismatched oligonucleotides were used as controls. The same concentration of oligonucleotide (e.g., 50 nM) was used per plate of cells for each oligonucleotide tested.
(§2) In order to determine the effect of HDAC OSDNs on cell growth and cell death through apoptosis, A549 or T24 cells, MDAmb231 cells, and HMEC cells (ATCC, Manassas, Va.) were treated with HDAC OSDNs as previously described.
(§3) Cells were harvested and cell numbers counted by trypan blue exclusion using a hemocytometer. Percentage of inhibition was calculated as (100—AS cell numbers/control cell numbers)%.

T24 [2] = assay: cell growth analysis (trypan blue cell count), T24; format: cell-based, human; settings: 50 nM, 72 hours
Description: as §1, §2, §3

MDAmb231 [3] = assay: cell growth analysis (trypan blue cell count), MDAmb231; format: cell-based, human; settings: 50 nM, 72 hours
Description: as §1, §2, §3

A549 [4] = assay: apoptosis, Cell Death Detection ELISA, A549; format: cell-based, human; settings: OSDN
Description: as §2
(§4) For the apoptosis study, cells were analyzed using the Cell Death Detection ELISA^Plus kit (Roche Diagnostic GmBH, Mannheim, Germany) according to the manufacturer's directions. Typically, 10,000 cells were plated in 96-well tissue culture dishes for 2 hours before harvest and lysis. Each sample was analyzed in duplicate. ELISA reading was done using a MR700 plate reader (DYNEX Technology, Ashford, Middlesex, England) at 410 nm. The reference was set at 490 nm.

T24 [5] = assay: apoptosis, Cell Death Detection ELISA, T24; format: cell-based, human; settings: OSDN
Description: as §2, §4

MDAmb231 [6] = assay: apoptosis, Cell Death Detection ELISA, MDAmb231; format: cell-based, human; settings: OSDN
Description: as §2, §4

HMEC = assay: apoptosis, Cell Death Detection ELISA, HMEC; format: cell-based, human; settings: OSDN, normal cells
Description: as §2, §4

human HDAC-4 RNA = assay: antisense screen by Northern blot in T24 cells, HDAC-4; format: cell-based; settings: screened as above (T24 cells, 100 nM, 24 hours)
Description: Seventeen phosphorothioate ODNs containing sequences complementary to the 5′ or 3′ UTR of the human HDAC-4 gene (GenBank Accession No. AB006626) were screened as above. […] HDAC-4 MM1 and MM2 oligonucleotides were created as controls; compared to the antisense oligonucleotides, they each contain a 6-base mismatch.
as §1
Cells were harvested, and total RNAs were analyzed by Northern blot analysis. Briefly, total RNA was extracted using RNeasy miniprep columns (QIAGEN). […]

[7] = system: p21 protein in A549 cells; assay: Western blot of p21 protein in A549 cells; format: cell-based, human; settings: FIG. 15
human HDAC-1 = target: T1, human HDAC-1 (Homo sapiens, UniProt Q13547); assay: histone deacetylase enzyme assay, HDAC-1; format: biochemical; settings: recombinant human enzyme, [3H]-acetylated histone substrate, 10 minutes; read-out: Enzyme IC50 (μM) HDAC1
T1 construct: made in house; host or cells: insect cells (baculovirus expression system)
T1 sequence (Q13547 whole entry): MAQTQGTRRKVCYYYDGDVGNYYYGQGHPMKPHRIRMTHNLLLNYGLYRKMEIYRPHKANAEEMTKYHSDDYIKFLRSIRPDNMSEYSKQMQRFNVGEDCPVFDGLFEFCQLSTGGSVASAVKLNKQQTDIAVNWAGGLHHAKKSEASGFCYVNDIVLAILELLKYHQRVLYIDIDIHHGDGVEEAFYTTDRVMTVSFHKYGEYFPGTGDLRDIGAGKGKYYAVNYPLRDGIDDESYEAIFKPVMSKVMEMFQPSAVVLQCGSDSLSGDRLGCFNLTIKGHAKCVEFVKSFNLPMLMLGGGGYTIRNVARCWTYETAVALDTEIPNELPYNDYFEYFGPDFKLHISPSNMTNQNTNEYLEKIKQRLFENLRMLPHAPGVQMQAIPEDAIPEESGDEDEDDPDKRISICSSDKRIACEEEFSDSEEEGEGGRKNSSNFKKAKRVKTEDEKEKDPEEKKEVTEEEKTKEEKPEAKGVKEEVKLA
Description: (§5) The other HDAC isotypes, HDAC-3 and HDAC-4, were purified directly on an anti-Flag affinity column.
(§6) For the deacetylase assay, 20,000 cpm of an [^3H]-metabolically-labeled acetylated histone was used as a substrate. Histones were incubated with cloned recombinant human HDAC enzymes at 37° C. […] All assay conditions were pre-determined to be certain that each reaction was linear. Reactions were stopped by adding acetic acid (0.04 M, final concentration) and HCl (250 mM, final concentration). The mixture was extracted with ethyl acetate, and the released [^3H]-acetic acid was quantified by liquid scintillation counting. For the inhibition studies, HDAC enzyme was preincubated with test compounds for 30 minutes at 4° C. prior to the start of the enzymatic assay. IC50 values for HDAC enzyme inhibitors were identified with dose response curves for each individual compound and, thereby, obtaining a value for the concentration of inhibitor that produced fifty percent of the maximal inhibition.

human HDAC-3 = target: T2, human HDAC-3 (Homo sapiens, UniProt O15379); assay: histone deacetylase enzyme assay, HDAC-3; format: biochemical; settings: recombinant human enzyme, [3H]-acetylated histone substrate, 2 hours; read-out: Enzyme IC50 (μM) HDAC3
T2 construct: made in house; host or cells: insect cells (baculovirus expression system)
T2 sequence (O15379 whole entry): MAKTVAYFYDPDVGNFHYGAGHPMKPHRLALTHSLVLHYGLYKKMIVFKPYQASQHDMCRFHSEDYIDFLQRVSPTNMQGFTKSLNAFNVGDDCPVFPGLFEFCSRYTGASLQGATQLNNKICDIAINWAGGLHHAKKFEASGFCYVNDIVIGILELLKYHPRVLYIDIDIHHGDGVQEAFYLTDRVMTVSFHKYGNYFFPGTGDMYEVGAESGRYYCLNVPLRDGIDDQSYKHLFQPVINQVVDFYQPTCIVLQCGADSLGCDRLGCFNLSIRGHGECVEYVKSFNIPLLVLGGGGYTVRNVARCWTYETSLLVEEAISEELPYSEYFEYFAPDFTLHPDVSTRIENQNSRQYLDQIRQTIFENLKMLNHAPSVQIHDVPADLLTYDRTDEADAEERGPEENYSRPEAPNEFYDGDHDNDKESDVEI
Description: as §5, §6

human HDAC-4 = target: T3, human HDAC-4 (Homo sapiens, UniProt P56524); assay: histone deacetylase enzyme assay, HDAC-4; format: biochemical; settings: recombinant human enzyme, [3H]-acetylated histone substrate, 2 hours; read-out: Enzyme IC50 (μM) HDAC4
T3 construct: Flag; made in house
T3 sequence (P56524 whole entry): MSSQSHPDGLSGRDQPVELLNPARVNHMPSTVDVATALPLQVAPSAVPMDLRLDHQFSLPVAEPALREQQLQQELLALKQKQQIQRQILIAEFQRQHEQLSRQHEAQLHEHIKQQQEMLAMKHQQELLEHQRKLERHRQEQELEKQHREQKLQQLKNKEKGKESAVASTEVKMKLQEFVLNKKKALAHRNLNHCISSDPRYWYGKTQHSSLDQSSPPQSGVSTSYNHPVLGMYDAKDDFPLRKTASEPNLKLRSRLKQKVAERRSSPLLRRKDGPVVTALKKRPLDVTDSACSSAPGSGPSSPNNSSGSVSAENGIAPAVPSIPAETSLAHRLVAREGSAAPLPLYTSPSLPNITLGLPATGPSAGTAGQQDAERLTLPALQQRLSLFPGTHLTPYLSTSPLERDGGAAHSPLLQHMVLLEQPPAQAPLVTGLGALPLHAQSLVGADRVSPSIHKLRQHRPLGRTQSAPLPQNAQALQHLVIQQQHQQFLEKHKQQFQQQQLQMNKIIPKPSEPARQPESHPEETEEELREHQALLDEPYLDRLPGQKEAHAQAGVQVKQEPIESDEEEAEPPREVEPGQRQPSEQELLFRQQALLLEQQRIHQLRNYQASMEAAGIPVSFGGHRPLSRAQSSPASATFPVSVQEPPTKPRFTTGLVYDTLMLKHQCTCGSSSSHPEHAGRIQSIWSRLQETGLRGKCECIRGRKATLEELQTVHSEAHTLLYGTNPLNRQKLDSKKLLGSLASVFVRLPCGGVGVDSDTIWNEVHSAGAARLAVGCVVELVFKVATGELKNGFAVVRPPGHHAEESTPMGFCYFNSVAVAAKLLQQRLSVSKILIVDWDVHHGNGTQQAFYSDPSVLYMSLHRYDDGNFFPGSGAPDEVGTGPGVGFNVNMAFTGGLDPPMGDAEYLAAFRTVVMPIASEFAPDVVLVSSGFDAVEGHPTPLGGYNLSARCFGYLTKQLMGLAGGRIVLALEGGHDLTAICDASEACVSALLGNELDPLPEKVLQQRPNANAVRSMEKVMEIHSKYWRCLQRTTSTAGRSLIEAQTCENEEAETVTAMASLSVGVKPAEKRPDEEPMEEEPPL
Description: Flag-tagged human HDAC-4 enzyme was produced in human embronic kidney 293 cells after transformation by the calcium phosphate precipitation method. Briefly, 293 cells were cultured in Dulbecco's Modified Eagle Medium (DMEM) containing 10% fetal bovine serum and antibiotics. Plasmid DNA encoding Flag-tagged human HDAC-4 was precipitated by ethanol and resuspend in sterile water. DNA-calcium precipitates, formed by mixing DNA, calcium choloride and 2× HEPES-buffered saline solution, were left on 293 cells for 12-16 hours. Cells were return to serum-contained. DMEM medium and harvested at 48 hour post transfection for purification of Flag-tagged HDAC-4 enzyme.
as §5
For the deacetylase assay, 20,000 cpm of an [^3H]-metabolically-labeled acetylated histone was used as a substrate. Histones were incubated with cloned recombinant human HDAC enzymes at 37° C. […] All assay conditions were pre-determined to be certain that each reaction was linear. Reactions were stopped by adding acetic acid (0.04 M, final concentration) and HCl (250 mM, final concentration). The mixture was extracted with ethyl acetate, and the released [^3H]-acetic acid was quantified by liquid scintillation counting. […]

human HDAC-6 = target: T4, human HDAC-6 (Homo sapiens, UniProt Q9UBN7); assay: histone deacetylase enzyme assay, HDAC-6; format: biochemical; settings: recombinant human enzyme, [3H]-acetylated histone substrate, 2 hours; read-out: Enzyme IC50 (μM) HDAC6
T4 construct: made in house; host or cells: insect cells (baculovirus expression system)
T4 sequence (Q9UBN7 whole entry): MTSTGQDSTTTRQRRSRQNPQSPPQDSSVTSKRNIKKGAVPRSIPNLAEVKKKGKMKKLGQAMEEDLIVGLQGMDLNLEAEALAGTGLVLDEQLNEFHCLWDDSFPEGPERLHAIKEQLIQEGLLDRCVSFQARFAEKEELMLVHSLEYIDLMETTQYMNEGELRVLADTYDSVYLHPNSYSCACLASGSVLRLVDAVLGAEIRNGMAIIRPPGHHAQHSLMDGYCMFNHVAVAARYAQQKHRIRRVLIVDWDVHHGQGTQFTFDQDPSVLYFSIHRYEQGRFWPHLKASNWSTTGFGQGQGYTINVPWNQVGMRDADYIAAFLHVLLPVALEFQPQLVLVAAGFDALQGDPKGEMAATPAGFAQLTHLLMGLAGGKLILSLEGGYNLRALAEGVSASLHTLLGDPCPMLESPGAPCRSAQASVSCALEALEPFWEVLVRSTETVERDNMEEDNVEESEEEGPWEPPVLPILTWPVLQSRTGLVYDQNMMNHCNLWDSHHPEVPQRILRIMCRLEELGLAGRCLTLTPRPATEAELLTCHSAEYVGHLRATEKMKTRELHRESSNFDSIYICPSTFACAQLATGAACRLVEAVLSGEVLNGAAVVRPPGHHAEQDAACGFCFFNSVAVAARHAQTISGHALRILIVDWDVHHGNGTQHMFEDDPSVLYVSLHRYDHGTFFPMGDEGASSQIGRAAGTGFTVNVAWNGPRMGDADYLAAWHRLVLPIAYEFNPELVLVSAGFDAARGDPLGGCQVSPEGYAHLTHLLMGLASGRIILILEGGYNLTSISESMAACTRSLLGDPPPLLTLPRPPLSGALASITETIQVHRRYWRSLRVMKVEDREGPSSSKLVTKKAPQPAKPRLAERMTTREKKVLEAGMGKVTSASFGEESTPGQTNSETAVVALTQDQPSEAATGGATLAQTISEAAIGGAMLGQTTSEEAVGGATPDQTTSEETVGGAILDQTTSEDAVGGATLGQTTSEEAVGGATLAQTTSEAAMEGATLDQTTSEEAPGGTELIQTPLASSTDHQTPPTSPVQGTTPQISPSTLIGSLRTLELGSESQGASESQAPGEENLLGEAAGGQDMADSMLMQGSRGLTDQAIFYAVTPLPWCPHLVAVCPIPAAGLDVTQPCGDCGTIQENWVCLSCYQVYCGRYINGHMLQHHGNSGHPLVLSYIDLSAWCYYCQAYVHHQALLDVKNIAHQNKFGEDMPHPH
Description: as §5, §6

[8] = system: acetylated histone H-4 in T24 human bladder cancer cells; assay: inhibition of HDAC activity in whole cells (acetylated histone H-4 Western blot); format: cell-based; settings: 16 hours
Description: T24 human bladder cancer cells (ATCC, Manassas, Va.) growing in culture were incubated with test compounds for 16 hours. Histones were extracted from the cells by standard procedures (see e.g. Yoshida et al., supra) after the culture period. Twenty μg total core histone protein was loaded onto SDS/PAGE and transferred to nitrocellulose membranes, which were then reacted with polyclonal antibody specific for acetylated histone H-4 (Upstate Biotech Inc., Lake Placid, […].). Horse Radish Peroxidase conjugated secondary antibody was used at a dilution of 1:5000 to detect primary antibody binding. The secondary antibody binding was visualized by use of the Enhanced chemiluminescence (ECL) detection kit (Amersham-Pharmacia Biotech., Inc., Piscataway, N.J.). After exposure to film, acetylated H-4 signal was quantitated by densitometry.

[9] = system: human colon cancer HCT116 cells; assay: MTT assay of cell proliferation; format: cell-based; settings: HCT-116, 72 hours
Description: Two thousand (2,000) human colon cancer HCT116 cells (ATCC, Manassas, Va. were used in an MTT (3-[4,5-dimethylthiazol-2-yl]-2,5 diphenyl tetrazolium bromide) assay to quantitatively determine cell proliferation and cytotoxicity. Typically, HCT116 cells were plated into each well of the 96-well tissue culture plate and left overnight to attach to the plate. Compounds at various concentrations were added into the culture media (final DMSO concentration 1%) and incubated for 72 hours. MTT solution (obtained from Sigma as powder) was added and incubated with the cells for 4 hours at 37° C. in incubator with 5% CO2. During the incubation, viable cells convert MTT to a water-insoluble formazan dye. Solubilizing buffer (50% N,N-dimethylformamide, 20% SDS, pH 4.7) was added to cells and incubated for overnight at 37C in incubator with 5% CO2. Solubilized dye was quantitated by calorimetric reading at […] using a reference of […]. Optical density values were converted to cell number values by comparison to a standard growth curve for each cell line.

[10] = system: Human cancer HCT116 cells; assay: cell cycle arrest by FACS; format: cell-based; settings: HCT116, 16 hours; concentration to induce a (G2+M)/S ratio of 2.5
Description: Human cancer HCT116 cells were plated at 2×10^5 per 10-cm dish and were left to attach to the dish overnight in the incubator. Cells were treated with small molecule inhibitors at various concentrations (1 uM and 10 uM, typically, dissolved in DMSO) for 16 hours. Cells were harvested by trypsinization and washed once in 1×PBS (phosphate buffered saline). The cells were resuspended in about 200 ul 1×PBS and were fixed by slowly adding 1 ml 70% ethanol at −20° C. and were left at least overnight at −20° C. Fixed cells were centrifuged at low speed (1,000 rpm) for 5 minutes, and the cell pellets were washed again with 1×PBS. Nucleic acids from fixed cells were incubated in a staining solution (0.1% (w/v) glucose in 1×PBS containing 50 ug/ml propidium iodide) (Sigma-Aldridge, Mississauga, Ontario, CA) and RNase A (final 100 units/ml, (Sigma-Aldridge, Mississauga, Ontario, CA) for at least 30 minutes in the dark at 25° C. DNA content was measured by using a fluorescence-activated cell sorter (FACS) machine. Treatment of cells with all HDAC small molecule inhibitors in Table 2 results in a significant accumulation of cancer cell in G2/M phase of the cell cycle and concomitantly reduce the accumulation of cancer cells in S phase of the cell cycle. The ratio of cells in G2/M phase vs. cells in the S. phase was determined. […]

[11] = system: human colon cancer cells (HCT116); assay: tumor growth in mouse model, colon; format: in vivo, BALB/c nude mice; settings: 40 mg/kg body weight/day, po
Description: (§7) Female BALB/c nude mice were obtained from Charles River Laboratories (Charles River, N.Y.) and used at age 8-10 weeks. Human prostate tumor cells (DU145, 2×10^6) or human colon cancer cells (HCT116; 2×10^6) or […] A549 2×106 were injected subcutaneously in the animal's flank and allowed to form solid tumors. Tumor fragments were serially passaged a minimum of three times, then approximately 30 mg tumor fragments were implanted subcutaneously through a small surgical incision under general anaesthesia. Small molecule inhibitor administration by intraperotineal or oral administration was initiated when the tumors reached a volume of 100 mm^3. For intraperotineal administration, small molecule inhibitors of HDAC (40-50 mg/kg body weight/day) were dissolved in 100% DMSO and administered daily intraperitoneally by injection. For oral administration, small molecule inhibitors of HDAC (40-50 mg/kg body weight/days) were dissolved in a solution containing 65% polyethylene glycol 400 (PEG 400 (Sigma-Aldridge, Mississauga, Ontario, CA, Catalogue No. P-3265), 5% ethanol, and 30% water. Tumor volumes were monitored twice weekly up to 20 days. Each experimental group contained at least 6-8 animals. Percentage inhibition was calculated using volume of tumor from vehicle-treated mice as controls.

A549 [12] = assay: tumor growth in mouse model, lung; format: in vivo, BALB/c nude mice; settings: 50 mg/kg body weight/day, ip
Description: as §7

Row | IC50 (human HDAC-1) | IC50 (human HDAC-3) | IC50 (human HDAC-4) | IC50 (human HDAC-6) | EC50 [9] | Compound | Growth Inhibition (AS vs. MM) A549 (A549 [1]) | Growth Inhibition (AS vs. MM) T24 (T24 [2]) | Growth Inhibition (AS vs. MM) MDAmb231 (MDAmb231 [3]) | Apoptosis After 48 Hour Treatment A549 (A549 [4]) | Apoptosis After 48 Hour Treatment T24 (T24 [5]) | Apoptosis After 48 Hour Treatment MDAmb231 (MDAmb231 [6]) | Apoptosis After 48 Hour Treatment HMEC (HMEC) | antisense activity to human HDAC-4 (RNA expression, Northern blot) (human HDAC-4 RNA) | expression of the p21 protein [7] | H4-Ac [8] | Cell Cycle Arrest EC [10] | % inhibitor of tumor formation in vivo, colon [11] | % inhibitor of tumor formation in vivo, lung (A549 [12])
1 | – | – | – | – | – | HDAC-4 AS1: antisense oligonucleotide to human HDAC4, 5-GCTGCCTGCCGTGCCCACCC-3′ (SEQ ID NO:24) (sugars from the 5' end m4 d12 m4, all phosphorothioate, methylation of C and T or U not given here) | +++ (>75% inhibition) | ++ (50-75% inhibition) | ++ (50-75% inhibition) | +++ (5-8X fold) | + (2-3X fold) | ++ (3-5X fold) | − (< = 2x fold over non-specific background) | antisense activity | induces the expression of the p21 protein | – | – | – | –
2 | 3 µM | 30 µM | 35 µM | > 30 µM | 4 µM | Nc1ccccc1NC(=O)/C=C/C#Cc1cccc(NS(=O)(=O)c2ccccc2)c1 [Compound 2] | – | – | – | – | – | – | – | – | – | 5 µM | 8 µM | 53% | 54%
